# Data: US7790711B2, “Inhibitors of 11β-Hydroxysteroid Dehydrogenase” (Hoffmann-La Roche Inc., priority 2007, dated 2010)
# Target: T1, human 11betaHSD1 (Homo sapiens, UniProt P28845)
# T1 construct: stably transfected with full-length human 11betaHSD1 cDNA; expressed in transfected cells
# Experiment: in vitro inhibition of 11β-HSD1 in H4IIE cells stably transfected with human 11betaHSD1 (cortisone to cortisol, ELISA)
# Assay type: cell-based
# Settings: H4IIE cells stably transfected with full-length human 11betaHSD1 cDNA; 200 nM cortisone, 2 hours at 37° C.; cortisol by competitive ELISA
# Experimental: H4IIE cells stably transfected with full-length human 11betaHSD1 cDNA were propagated and expanded in DMEM high glucose media (Invitrogen Cat# 11995-065), supplemented with 10% FCS (Invitrogen Cat# 10082-147), 100 units/mL and 100 μg/mL pen/strep (Invitrogen Cat#15140-122), and geneticin (800 μg/mL). One day prior to assay, cells were released from flasks using trypsin/EDTA, centrifuged, and washed with plating media (DMEM high glucose, without phenol red; Invitrogen Cat# 21063-029, supplemented with 2% charcoal stripped FCS; Gemini Cat# 100-119). From a 500,000 cells/mL suspension in plating media, 200 μL of cells were seeded into each well of a 96-well coated plate (BioCoat Cat#356461) and cultured overnight at 37° C. The following day, serially diluted 11betaHSD1 inhibitor compounds dissolved in DMSO were added to DMEM with BSA (2 mg/mL final). The final DMSO concentration was 1%. Media was aspirated from plates, and compounds in media were added to each well. The plates were incubated at 37° C. for 1 hour to allow for cellular uptake of compounds. 10 μL of substrate (cortisone) was then added to each well (200 nM final concentration) and incubated for 2 hours at 37° C. Plates were then transferred to ice and 80 μL of media transferred to a 96-well plate and stored at −30° C.
# Quantitation of cortisol in cell media was performed by competitive ELISA using ELISA-Light (Tropix Cat# T10206/EL100S4), anti-cortisol EIA antibody (Assay Designs, Inc. Cat#80-1148), and cortisol-enzyme conjugate (Assay Designs, Inc. Cat# 80-1147). 384-well plates (Falcon Cat#353988) were precoated with anti-mouse IgG (Sigma Cat# M-1397) suspended in 0.9% NaCl (5 mg/mL), 50 μL per well, overnight at 4° C. Plates were washed with PBS, 0.1% Tween-20, then washed with PBS alone. Plates were blocked with Blocking Buffer (Tropix Cat# AI075) for 2 hours at room temperature. The plates were then washed as previously described. Assay samples were thawed, diluted 1:8 in DMEM, 2 mg/mL BSA, 1% DMSO, and 24 μL was transferred to wells of a pre-coated 384-well plate, as well as varying amounts of cortisol standard. To each well, 12 μL of cortisol-conjugate and 12 μL of anti-cortisol EIA antibody were added and incubated 2 hrs at room temperature on a orbital plate shaker. The wells were then emptied by inversion, then washed three times with 100 μL of PBS, 0.05% Tween-20, and then 2 times with 100 μL of Assay Buffer (Tropix). 60 μL of CDP-STAR (Tropix) was added to each well and incubated 10 minutes at room temperature. Chemiluminescence was measured using a Victor V Reader (Perkin Elmer). Cortisol in each sample was interpolated from a standard curve generated with known amounts of cortisol. IC50 values were calculated using the curve fitting software XLFit4 (IDBS).
# T1 sequence (P28845 whole entry): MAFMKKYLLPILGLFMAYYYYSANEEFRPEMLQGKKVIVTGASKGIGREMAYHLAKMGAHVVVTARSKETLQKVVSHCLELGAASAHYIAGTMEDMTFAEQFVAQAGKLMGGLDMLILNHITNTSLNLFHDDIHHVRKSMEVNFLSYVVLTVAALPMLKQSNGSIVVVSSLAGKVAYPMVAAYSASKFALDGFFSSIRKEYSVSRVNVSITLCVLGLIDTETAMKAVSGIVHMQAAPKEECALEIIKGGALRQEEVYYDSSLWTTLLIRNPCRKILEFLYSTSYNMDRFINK
row,SMILES,IC50 [nM]
1,"CC(C)Nc1c(C(=O)NC2C3CC4CC(C3)CC2C4)cnn1-c1ccccc1 (stereo not drawn) [Example 1, 5-Isopropylamino-1-phenyl-1H-pyrazole-4-carboxylic acid adamantan-2-ylamide]",1.3
2,"O=C(NC1C2CC3CC(C2)CC1C3)c1cnn(-c2ccccc2)c1NCc1ccccc1 (stereo not drawn) [Example 2, 5-Benzylamino-1-phenyl-1H-pyrazole-4-carboxylic acid adamantan-2-ylamide]",14
3,"O=C(NC1C2CC3CC(C2)CC1C3)c1cnn(-c2ccccc2)c1NCc1cccnc1 (stereo not drawn) [Example 3, 1-Phenyl-5-[(pyridin-3-ylmethyl)-amino]-1H-pyrazole-4-carboxylic acid adamantan-2-ylamide]",350
4,"O=C(NC1C2CC3CC(C2)CC1C3)c1cnn(-c2ccccc2)c1NCC1CC1 (stereo not drawn) [Example 4, 5-(Cyclopropylmethyl-amino)-1-phenyl-1H-pyrazole-4-carboxylic acid adamantan-2-ylamide]",1.9
5,"O=C(NC1C2CC3CC(C2)CC1C3)c1cnn(-c2ccccc2)c1NC1CCCCC1 (stereo not drawn) [Example 5, 5-Cyclohexylamino-1-phenyl-1H-pyrazole-4-carboxylic acid adamantan-2-ylamide]",4.7
6,"O=C(NC1C2CC3CC(C2)CC1C3)c1cnn(-c2ccccc2)c1NC1CCC1 (stereo not drawn) [Example 6, 5-Cyclobutylamino-1-phenyl-1H-pyrazole-4-carboxylic acid adamantan-2-ylamide]",7.6
7,"CC1CCC(C)N1c1c(C(=O)NC2C3CC4CC(C3)CC2C4)cnn1-c1ccccc1 (stereo not drawn) [Example 7, 5-(2,5-Dimethyl-pyrrolidin-1-y1)-1-phenyl-1H-pyrazole-4-carboxylic acid adamantan-2-ylamide]",4
8,"CC1CCCN1c1c(C(=O)NC2C3CC4CC(C3)CC2C4)cnn1-c1ccccc1 (stereo not drawn) [Example 8, 5-(2-Methyl-pyrrolidin-1-y1)-1-phenyl-1H-pyrazole-4-carboxylic acid adamantan-2-ylamide]",1.3
9,"CC1CCCN(c2c(C(=O)NC3C4CC5CC(C4)CC3C5)cnn2-c2ccccc2)C1 (stereo not drawn) [Example 9, 5-(3-Methyl-piperidin-1-y1)-1-phenyl-1H-pyrazole-4-carboxylic acid adamantan-2-ylamide]",3
10,"CN(Cc1ccccc1)c1c(C(=O)NC2C3CC4CC(C3)CC2C4)cnn1-c1ccccc1 (stereo not drawn) [Example 10, 5-(Benzyl-methyl-amino)-1-phenyl-1H-pyrazole-4-carboxylic acid adamantan-2-ylamide]",9.1
11,"CN(CCc1ccccc1)c1c(C(=O)NC2C3CC4CC(C3)CC2C4)cnn1-c1ccccc1 (stereo not drawn) [Example 11, 5-(Methyl-phenethyl-amino)-1-phenyl-1H-pyrazole-4-carboxylic acid adamantan-2-ylamide]",3.7
12,"CC1CN(c2c(C(=O)NC3C4CC5CC(C4)CC3C5)cnn2-c2ccccc2)CC(C)O1 (stereo not drawn) [Example 12, 5-(2,6-Dimethyl-morpholin-4-y1)-1-phenyl-1H-pyrazole-4-carboxylic acid adamantan-2-ylamide]",3.7
13,"O=C(NC1C2CC3CC(C2)CC1C3)c1cnn(-c2ccccc2)c1N1CCCC1 (stereo not drawn) [Example 13, 1-Phenyl-5-pyrrolidin-1-y1-1H-pyrazole-4-carboxylic acid adamantan-2-ylamide]",0.55
14,"O=C(NC1C2CC3CC(C2)CC1C3)c1cnn(-c2ccccc2)c1N1CCCCCC1 (stereo not drawn) [Example 14, 5-Azepan-1-y1-1-phenyl-1H-pyrazole-4-carboxylic acid adamantan-2-ylamide]",1
15,"O=C(NC1C2CC3CC(C2)CC1C3)c1cnn(-c2ccccc2)c1N1CCOCC1 (stereo not drawn) [Example 15, 5-Morpholin-4-y1-1-phenyl-1H-pyrazole-4-carboxylic acid adamantan-2-ylamide]",3
16,"O=C(NC1C2CC3CC(C2)CC1C3)c1cnn(-c2ccccc2)c1N1CCCC(CO)C1 (stereo not drawn) [Example 16, 5-(3-Hydroxymethyl-piperidin-1-y1)-1-phenyl-1H-pyrazole-4-carboxylic acid adamantan-2-ylamide]",6.4
17,"O=C(NC1C2CC3CC(C2)CC1C3)c1cnn(-c2ccccc2)c1N1CCC[C@H]1CO (stereo partly drawn) [Example 17, 5-((S)-2-Hydroxymethyl-pyrrolidin-1-y1)-1-phenyl-1H-pyrazole-4-carboxylic acid adamantan-2-ylamide]",42
18,"O=C(NC1C2CC3CC(C2)CC1C3)c1cnn(-c2ccccc2)c1N1CCC(O)CC1 (stereo not drawn) [Example 18, 5-(4-Hydroxy-piperidin-1-y1)-1-phenyl-1H-pyrazole-4-carboxylic acid adamantan-2-ylamide]",3
19,"O=C(NC1C2CC3CC(C2)CC1C3)c1cnn(-c2ccccc2)c1N1CCCC(O)C1 (stereo not drawn) [Example 19, 5-(3-Hydroxy-piperidin-1-y1)-1-phenyl-1H-pyrazole-4-carboxylic acid adamantan-2-ylamide]",9.2
20,"O=C(NC1C2CC3CC(C2)CC1C3)c1cnn(-c2ccccc2)c1N1CCC(O)C1 (stereo not drawn) [Example 20, 5-(3-Hydroxy-pyrrolidin-1-y1)-1-phenyl-1H-pyrazole-4-carboxylic acid adamantan-2-ylamide]",13
21,"CC(O)CNc1c(C(=O)NC2C3CC4CC(C3)CC2C4)cnn1-c1ccccc1 (stereo not drawn) [Example 21, 5-(2-Hydroxy-propylamino)-1-phenyl-1H-pyrazole-4-carboxylic acid adamantan-2-ylamide]",41
22,"O=C(NC1C2CC3CC(C2)CC1C3)c1cnn(-c2ccccc2)c1NCCO (stereo not drawn) [Example 22, 5-(2-Hydroxy-ethylamino)-1-phenyl-1H-pyrazole-4-carboxylic acid adamantan-2-ylamide]",21
23,"O=C(NC1C2CC3CC(C2)CC1C3)c1cnn(-c2ccccc2)c1NCCCO (stereo not drawn) [Example 23, 5-(3-Hydroxy-propylamino)-1-phenyl-1H-pyrazole-4-carboxylic acid adamantan-2-ylamide]",55
24,"O=C(NC1C2CC3CC(C2)CC1C3)c1cnn(-c2ccccc2)c1NCCCCO (stereo not drawn) [Example 24, 5-(4-Hydroxy-butylamino)-1-phenyl-1H-pyrazole-4-carboxylic acid adamantan-2-ylamide]",7.5
25,"O=C(NC1C2CC3CC(C2)CC1C3)c1cnn(-c2ccccc2)c1NCC1CCCO1 (stereo not drawn) [Example 25, 1-Phenyl-5-[(tetrahydro-furan-2-ylmethyl)-amino]-1H-pyrazole-4-carboxylic acid adamantan-2-ylamide]",2
26,"CN(CCO)c1c(C(=O)NC2C3CC4CC(C3)CC2C4)cnn1-c1ccccc1 (stereo not drawn) [Example 26, 5-[(2-Hydroxy-ethyl)-methyl-amino]-1-phenyl-1H-pyrazole-4-carboxylic acid adamantan-2-ylamide]",14
27,"COCCCNc1c(C(=O)NC2C3CC4CC(C3)CC2C4)cnn1-c1ccccc1 (stereo not drawn) [Example 27, 5-(3-Methoxy-propylamino)-1-phenyl-1H-pyrazole-4-carboxylic acid adamantan-2-ylamide]",1.4
